Measurements from PMC6901909, “Synergy Pattern of Short Cationic Antimicrobial Peptides Against Multidrug-Resistant Pseudomonas aeruginosa” (Frontiers in Microbiology, 2019).
≈ marks a conversion by molar mass, not a printed value. Like-named read-outs stand apart in the source and are kept apart here. Peptide text beside a SMILES is read from it.

Columns and labels:
MDR P. aeruginosa PA 910 = assay: microbe, parasite or virus in culture; type: cell-based, Pseudomonas aeruginosa; conditions: for MIC: Pseudomonas aeruginosa; for MIC against PA910 in μM (peptides, Table 4): peptide alone
Method in brief: (§1)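 Inoculum 2–5 10^5 CFU/ml in Mueller-Hinton broth, compounds twofold serially diluted, polypropylene microtiter plates. Strains are MDR isolates from clinical and municipal waste water.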

MDR P. aeruginosa PA 915 = assay: microbe, parasite or virus in culture; type: cell-based, Pseudomonas aeruginosa; conditions: Pseudomonas aeruginosa; conventional antibiotics; microdilution, Mueller-Hinton broth, 2–5 10^5 CFU/ml, 18 h at 37°C, read visually; at least three repeats (n = 3)
Method in brief: as §1

P. aeruginosa PA01-wt = assay: microbe, parasite or virus in culture; type: cell-based, Pseudomonas aeruginosa; conditions: for MIC: Pseudomonas aeruginosa, PA01WT, conventional antibiotics, 2–5 10^5 CFU/ml, at least three repeats (n = 3)
MDR P. aeruginosa PA253 = assay: microbe, parasite or virus in culture; type: cell-based, Pseudomonas aeruginosa; conditions: for MIC: Pseudomonas aeruginosa, conventional antibiotics, 2–5 10^5 CFU/ml, at least three repeats (n = 3)
Method in brief: as §1

MDR P. aeruginosa PA 923 = assay: microbe, parasite or virus in culture; type: cell-based, Pseudomonas aeruginosa; conditions: Pseudomonas aeruginosa; conventional antibiotics; microdilution, Mueller-Hinton broth, 2–5 10^5 CFU/ml, 18 h at 37°C, read visually; at least three repeats (n = 3)
Method in brief: as §1

MDR P. aeruginosa PA 919 = assay: microbe, parasite or virus in culture; type: cell-based, Pseudomonas aeruginosa; conditions: for MIC: Pseudomonas aeruginosa, conventional antibiotics, 2–5 10^5 CFU/ml, at least three repeats (n = 3)
Method in brief: as §1

MDR P. aeruginosa PA 927 = assay: microbe, parasite or virus in culture; type: cell-based, Pseudomonas aeruginosa; conditions: Pseudomonas aeruginosa; conventional antibiotics; microdilution, Mueller-Hinton broth, 2–5 10^5 CFU/ml, 18 h at 37°C, read visually; at least three repeats (n = 3)
Method in brief: as §1

[1] = tested on: MDR isolate of P. aeruginosa (PA 910); conditions: checkerboard, MHb, for the Indopt versions 1/8 MHb, 2–5 × 10^5 CFU/ml, 37°C, 18 h, visual, determined once (n = 1); for FIC, combination with AMI: peptide + amikacin; for FIC, combination with CEF: peptide + cefepime; for FIC, combination with CET: peptide + ceftazidime; for FIC, combination with CIP: peptide + ciprofloxacin; for FIC, combination with ERY: peptide + erythromycin; for FIC, combination with GEN: peptide + gentamycin; for FIC, combination with IMI: peptide + imipenem; for FIC, combination with KAN: peptide + kanamycin; for FIC, combination with MER: peptide + meropenem; for FIC, combination with PIP: peptide + piperacillin; for FIC, combination with PMB: peptide + polymyxin B; for FIC, combination with TET: peptide + tetracycline; for FIC, combination with TOB: peptide + tobramycin
Procedure: The checkerboard assay was used to determine the fractional inhibitory concentrations (FICs), following the protocol described in Koneman’s Color Atlas and Textbook of Diagnostic Microbiology ([Winn et al., 2006]). Briefly, combinations of peptides and antibiotics were prepared in 96-well plates (polypropylene, Corning) in a twofold dilution series. After the addition of a log-phase bacterial inoculum of 2–5 × 10^5 CFU/ml, plates were incubated at 37°C for 18 h. The FICs were determined by visual inspection and the effects of the combinations were determined using the FICs. The FIC was computed by adding two partial FIC values, FICA—the MIC of drug A, tested in combination with drug B divided by the MIC of drug A, tested alone and FICB—the MIC of drug B, tested in combination with drug A divided by the MIC of drug B, tested alone [FIC = FICA + FICB = (MICAB/MICA) + (MICBA/MICB), where MICA and MICB are the MICs of drugs A and B alone, respectively, and MICAB and MICBA are the MIC concentrations of the drugs in combination]. Here we use the European Committee for Antimicrobial Susceptibility Testing (EUCAST) definition, which is very similar to the definition provided by [Odds, 2003], except Odds define additive effects when FIC values are between 0.5 and 1 ([European Committee for Antimicrobial Susceptibility Testing [EUCAST] of the European Society of Clinical Microbiology and Infectious Diseases [ESCMID], 2000]; [Odds, 2003]). The combination of peptide (drug A) and antibiotics (drug B) was defined as synergistic if the FIC was ≤ 0.5, indifferent if the FIC was > 0.5 but ≤ 4.0 and antagonistic if the FIC was > 4.0.

[2] = 18 h, antibiotic alone, as listed in the FIC table, read-out: MIC against PA910 in μM (antibiotics, head of Table 4)
[3] = conventional antibiotics, microdilution, Mueller-Hinton broth, 2–5 10^5 CFU/ml, 18 h at 37°C, read visually, at least three repeats (n = 3), read-out: MIC PA 910
[4] = microdilution, Mueller-Hinton broth, 18 h at 37°C, read visually
[5] = four classes defined from the MIC values, 1 strong to 4 weak
[6] = short AMPs, microdilution, Mueller-Hinton broth, 18 h at 37°C, read visually, triplicate (n = 3)

Row | MIC (MDR P. aeruginosa PA 910; [2]) [µM] | MIC (MDR P. aeruginosa PA 910; [3]) [µM] | MIC (MDR P. aeruginosa PA 915) [µM] | MIC (P. aeruginosa PA01-wt; [4]) [µM] | MIC (MDR P. aeruginosa PA253; [4]) [µM] | MIC (MDR P. aeruginosa PA 923) [µM] | MIC (MDR P. aeruginosa PA 919; [4]) [µM] | MIC (MDR P. aeruginosa PA 927) [µM] | Structure (SMILES) | FIC, combination with AMI [1] | FIC, combination with CEF [1] | FIC, combination with CET [1] | FIC, combination with CIP [1] | FIC, combination with ERY [1] | FIC, combination with GEN [1] | FIC, combination with IMI [1] | FIC, combination with KAN [1] | FIC, combination with MER [1] | FIC, combination with PIP [1] | FIC, combination with PMB [1] | FIC, combination with TET [1] | other results
1 | > 128 | > 128 | > 128 | 2 (≈ 0.599 µg/mL) | > 128 | > 128 | 16 (≈ 4.79 µg/mL) | > 128 | C[C@@H](O)[C@H]1C(=O)N2C(C(=O)O)=C(SCCN=CN)C[C@H]12 [Imipenem] | – | – | – | – | – | – | – | – | – | – | – | – | –
2 | – | – | – | – | – | – | – | – | CC[C@H](C)[C@H](NC(=O)[C@H](CCCCN)NC(=O)[C@H](CCC(=O)O)NC(=O)[C@H](CCCCN)NC(=O)[C@H](CO)NC(=O)[C@H](CCCCN)NC(=O)[C@H](CCCNC(=N)N)NC(=O)[C@H](Cc1ccccc1)NC(=O)[C@H](Cc1ccccc1)NC(=O)[C@H](CC(=O)O)NC(=O)CNC(=O)[C@H](CC(C)C)NC(=O)[C@@H](N)CC(C)C)C(=O)NCC(=O)N[C@@H](CCCCN)C(=O)N[C@@H](CCC(=O)O)C(=O)N[C@@H](Cc1ccccc1)C(=O)N[C@@H](CCCCN)C(=O)N[C@@H](CCCNC(=N)N)C(=O)N[C@H](C(=O)N[C@H](C(=O)N[C@@H](CCC(N)=O)C(=O)N[C@@H](CCCNC(=N)N)C(=O)N[C@H](C(=O)N[C@@H](CCCCN)C(=O)N[C@@H](CC(=O)O)C(=O)N[C@@H](Cc1ccccc1)C(=O)N[C@@H](CC(C)C)C(=O)N[C@@H](CCCNC(=N)N)C(=O)N[C@@H](CC(N)=O)C(=O)N[C@@H](CC(C)C)C(=O)N[C@H](C(=O)N1CCC[C@H]1C(=O)N[C@@H](CCCNC(=N)N)C(=O)N[C@H](C(=O)N[C@@H](CCC(=O)O)C(=O)N[C@@H](CO)C(=O)O)[C@@H](C)O)C(C)C)[C@@H](C)CC)C(C)C)[C@@H](C)CC [LL37] | 2 | 2 | 0.75 | 0.51 | 0.51 | 2 | 1 | 1 | 0.51 | 2 | 0.63 | 0.5 | FIC, combination with TOB [1]: 2; activity class by MIC (number in brackets), PA910 (MDR P. aeruginosa PA 910; [5]): 4 (the least active class includes peptides with MIC values larger than 32 μM); MIC against PA910 in μM (peptides, Table 4) (MDR P. aeruginosa PA 910; as listed in the FIC table): 64 µM; MIC against MDR isolates of PA, PA910 (MDR P. aeruginosa PA 910; [6]): 64 µM; activity class by MIC (number in brackets), PA01 wt (P. aeruginosa PA01-wt; [5]): 3 (class 3 includes peptides with MIC values between 16 and 32 μM); MIC against PA01 wt (P. aeruginosa PA01-wt; [6]): 16 µM (≈ 71.9 µg/mL); activity class by MIC (number in brackets), PA253 (MDR P. aeruginosa PA253; [5]): 4 (the least active class includes peptides with MIC values larger than 32 μM); MIC against MDR isolates of PA, PA253 (MDR P. aeruginosa PA253; [6]): 64 µM; activity class by MIC (number in brackets), PA919 (MDR P. aeruginosa PA 919; [5]): 3 (class 3 includes peptides with MIC values between 16 and 32 μM); MIC against MDR isolates of PA, PA919 (MDR P. aeruginosa PA 919; [6]): 16 µM
3 | > 128 | > 128 | > 128 | 2 to 4 (≈ 0.767 to 1.53 µg/mL) | > 128 | > 128 | > 128 | > 128 | C[C@@H](O)[C@H]1C(=O)N2C(C(=O)O)=C(S[C@@H]3CN[C@H](C(=O)N(C)C)C3)[C@H](C)[C@H]12 [Meropenem] | – | – | – | – | – | – | – | – | – | – | – | – | –
4 | 64 to 128 | 64 to 128 (≈ 33.1 to 66.2 µg/mL) | > 256 | 4 (≈ 2.07 µg/mL) | > 256 | 128 (≈ 66.2 µg/mL) | 64 (≈ 33.1 µg/mL) | 256 (≈ 132 µg/mL) | CCN1CCN(C(=O)N[C@@H](C(=O)N[C@@H]2C(=O)N3[C@@H]2SC(C)(C)[C@@H]3C(=O)O)c2ccccc2)C(=O)C1=O [Piperacillin] | – | – | – | – | – | – | – | – | – | – | – | – | –
5 | – | – | – | – | – | – | – | – | CC[C@H](C)[C@H](NC(=O)[C@H](CCCNC(=N)N)NC(=O)[C@H](Cc1c[nH]c2ccccc12)NC(=O)[C@H](CC(C)C)NC(=O)[C@@H](N)CCCNC(=N)N)C(=O)N[C@H](C(=O)N[C@H](C(=O)N[C@H](C(=O)N[C@@H](CCCNC(=N)N)C(=O)N[C@H](C(=O)N[C@@H](CCCCN)C(=O)N[C@@H](CCCNC(=N)N)C(N)=O)C(C)C)[C@@H](C)CC)C(C)C)C(C)C [Sub 7] (H-RLWRIVVIRVKR-NH2) | 0.53 | 0.56 | 0.56 | 0.75 | 0.5 | 0.75 | 2 | 0.63 | 0.51 | 0.53 | 1 | 0.5 | FIC, combination with TOB [1]: 2; MIC against PA910 in μM (peptides, Table 4) (MDR P. aeruginosa PA 910; as listed in the FIC table): 32 µM; MIC against PA01 wt (P. aeruginosa PA01-wt; -wt, 18 h): 16 µM (≈ 25.5 µg/mL); MIC against MDR isolates of PA, PA253 (MDR P. aeruginosa PA253; MDR PA253, 18 h): 16 µM; MIC against MDR isolates of PA, PA919 (MDR P. aeruginosa PA 919; MDR PA 919, 18 h): 32 µM
